Measured values published in ChEMBL document CHEMBL1135353, “Synthesis and initial SAR studies of 3,6-disubstituted pyrazolo[1,5-a]pyrimidines: a new class of KDR kinase inhibitors” (Bioorg Med Chem Lett, 2002).

Molecular target: VEGF-receptor 2 and tyrosine-protein kinase SRC (Homo sapiens) (UniProt P12931+P35968)
Test: Selectivity for Vascular endothelial growth factor receptor 2 over c-Src kinase
Format: protein assay
Conditions: not given

Sequence of VEGF-receptor 2 and tyrosine-protein kinase SRC (Homo sapiens) (P12931 whole entry, looked up): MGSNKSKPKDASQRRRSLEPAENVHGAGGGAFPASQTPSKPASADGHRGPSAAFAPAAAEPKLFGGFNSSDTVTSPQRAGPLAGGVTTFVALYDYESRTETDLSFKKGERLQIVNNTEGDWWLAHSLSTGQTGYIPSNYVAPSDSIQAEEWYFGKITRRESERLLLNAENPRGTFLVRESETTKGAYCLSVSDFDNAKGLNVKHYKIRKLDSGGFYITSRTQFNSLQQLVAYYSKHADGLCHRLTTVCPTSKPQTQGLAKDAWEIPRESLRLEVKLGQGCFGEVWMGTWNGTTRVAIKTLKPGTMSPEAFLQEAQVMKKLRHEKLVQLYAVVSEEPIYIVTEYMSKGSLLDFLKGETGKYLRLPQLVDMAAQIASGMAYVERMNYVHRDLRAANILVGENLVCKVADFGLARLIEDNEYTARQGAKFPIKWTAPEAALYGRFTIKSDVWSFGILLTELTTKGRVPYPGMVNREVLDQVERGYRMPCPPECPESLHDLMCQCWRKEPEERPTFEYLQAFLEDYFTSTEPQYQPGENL
Sequence of VEGF-receptor 2 and tyrosine-protein kinase SRC (Homo sapiens) (P35968 whole entry, looked up): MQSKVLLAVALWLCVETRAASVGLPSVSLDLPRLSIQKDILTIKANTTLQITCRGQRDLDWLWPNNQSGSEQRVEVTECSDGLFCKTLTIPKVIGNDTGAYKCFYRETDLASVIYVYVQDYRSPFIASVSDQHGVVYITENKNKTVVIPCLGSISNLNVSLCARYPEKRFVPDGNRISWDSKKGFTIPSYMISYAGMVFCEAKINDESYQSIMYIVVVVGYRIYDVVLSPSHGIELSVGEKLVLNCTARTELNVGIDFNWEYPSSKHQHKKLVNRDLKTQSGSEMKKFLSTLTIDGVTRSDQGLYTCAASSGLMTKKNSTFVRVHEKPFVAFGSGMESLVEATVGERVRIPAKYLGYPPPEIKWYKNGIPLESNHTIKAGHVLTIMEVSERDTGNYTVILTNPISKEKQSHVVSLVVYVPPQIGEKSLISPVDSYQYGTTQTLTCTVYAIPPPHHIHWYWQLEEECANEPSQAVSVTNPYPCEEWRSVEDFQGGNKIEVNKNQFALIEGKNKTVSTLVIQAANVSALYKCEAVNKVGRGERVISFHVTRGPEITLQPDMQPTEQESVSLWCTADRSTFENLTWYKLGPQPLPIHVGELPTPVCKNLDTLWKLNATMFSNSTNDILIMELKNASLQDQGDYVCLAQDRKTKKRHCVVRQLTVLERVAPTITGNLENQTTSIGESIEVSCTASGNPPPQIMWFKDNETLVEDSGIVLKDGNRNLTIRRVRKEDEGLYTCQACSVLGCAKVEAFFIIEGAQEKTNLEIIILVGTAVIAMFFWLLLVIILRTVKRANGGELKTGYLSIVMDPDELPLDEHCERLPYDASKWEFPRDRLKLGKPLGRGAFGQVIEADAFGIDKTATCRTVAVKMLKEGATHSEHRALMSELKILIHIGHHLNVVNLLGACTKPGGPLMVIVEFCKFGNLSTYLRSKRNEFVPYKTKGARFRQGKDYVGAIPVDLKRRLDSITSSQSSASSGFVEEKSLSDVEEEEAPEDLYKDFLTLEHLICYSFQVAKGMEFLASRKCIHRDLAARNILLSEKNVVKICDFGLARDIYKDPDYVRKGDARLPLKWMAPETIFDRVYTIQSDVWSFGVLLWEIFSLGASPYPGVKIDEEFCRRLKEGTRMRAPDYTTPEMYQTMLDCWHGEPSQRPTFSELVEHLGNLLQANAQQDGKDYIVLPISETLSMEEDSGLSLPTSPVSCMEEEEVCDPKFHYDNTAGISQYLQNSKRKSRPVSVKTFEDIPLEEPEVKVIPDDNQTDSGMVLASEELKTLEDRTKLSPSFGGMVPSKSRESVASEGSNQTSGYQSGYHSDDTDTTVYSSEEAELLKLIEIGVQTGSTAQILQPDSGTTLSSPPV

Row | Ratio | Compound
1 | 27 | COc1ccc(-c2cnc3c(-c4ccncc4)cnn3c2)cc1

Molecular target: Vascular endothelial growth factor receptor (Homo sapiens, UniProt P17948+P35916+P35968)
Conditions: endothelial cell
Description: Inhibition of VEGF-stimulated mitogenesis in human umbilical vein endothelial cells

Row | IC50 [nM] | Compound
2 | 127 | c1cc(-c2cnc3c(-c4ccsc4)cnn3c2)ccn1

Molecular target: Vascular endothelial growth factor receptor 2 and 3 (KDR and Flt-4) (Homo sapiens) (UniProt P35916+P35968)
Sequence (P35916 whole entry, looked up): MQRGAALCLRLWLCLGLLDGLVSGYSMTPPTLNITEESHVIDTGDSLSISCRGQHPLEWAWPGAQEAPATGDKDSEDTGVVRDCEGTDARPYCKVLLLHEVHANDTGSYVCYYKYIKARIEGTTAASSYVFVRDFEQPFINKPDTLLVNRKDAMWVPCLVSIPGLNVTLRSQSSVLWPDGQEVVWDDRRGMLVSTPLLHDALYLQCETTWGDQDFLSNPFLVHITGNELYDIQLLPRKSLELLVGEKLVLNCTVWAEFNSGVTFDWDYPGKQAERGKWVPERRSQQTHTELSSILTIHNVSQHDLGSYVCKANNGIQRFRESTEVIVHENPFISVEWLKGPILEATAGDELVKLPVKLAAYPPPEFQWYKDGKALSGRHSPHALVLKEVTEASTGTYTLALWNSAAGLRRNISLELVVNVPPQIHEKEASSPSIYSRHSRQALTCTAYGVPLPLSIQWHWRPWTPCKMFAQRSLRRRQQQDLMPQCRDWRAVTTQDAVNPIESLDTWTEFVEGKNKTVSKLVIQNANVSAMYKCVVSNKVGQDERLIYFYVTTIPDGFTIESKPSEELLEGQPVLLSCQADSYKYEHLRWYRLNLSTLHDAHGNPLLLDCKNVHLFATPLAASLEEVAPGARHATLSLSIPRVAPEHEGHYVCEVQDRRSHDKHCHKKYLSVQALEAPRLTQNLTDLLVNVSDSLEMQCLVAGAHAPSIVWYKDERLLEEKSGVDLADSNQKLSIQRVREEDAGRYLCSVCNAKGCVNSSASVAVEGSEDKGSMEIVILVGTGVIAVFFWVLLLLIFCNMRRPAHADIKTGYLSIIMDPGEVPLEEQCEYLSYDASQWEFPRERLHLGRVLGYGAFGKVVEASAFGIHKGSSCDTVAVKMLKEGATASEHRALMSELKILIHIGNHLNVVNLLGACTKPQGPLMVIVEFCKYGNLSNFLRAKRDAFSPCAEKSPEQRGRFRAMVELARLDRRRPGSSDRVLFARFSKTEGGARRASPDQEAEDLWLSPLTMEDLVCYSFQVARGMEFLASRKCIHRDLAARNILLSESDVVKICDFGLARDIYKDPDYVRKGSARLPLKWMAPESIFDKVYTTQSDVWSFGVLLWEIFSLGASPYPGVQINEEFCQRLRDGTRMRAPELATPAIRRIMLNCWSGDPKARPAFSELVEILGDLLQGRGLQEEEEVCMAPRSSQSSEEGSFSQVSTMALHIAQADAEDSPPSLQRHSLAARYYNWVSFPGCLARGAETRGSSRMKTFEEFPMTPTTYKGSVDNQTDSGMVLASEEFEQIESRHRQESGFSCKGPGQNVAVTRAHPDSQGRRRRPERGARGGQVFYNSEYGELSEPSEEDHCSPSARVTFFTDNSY
Sequence (P35968 whole entry, looked up): as the sequence (P35968 whole entry, looked up) above
Test: Selectivity for VEGF-receptor 2 (KDR) over Vascular endothelial growth factor receptor 3 (FLT4)
Format: protein assay
Conditions: not given

Row | Ratio | Compound
3 | 2.2 | COc1ccc(-c2cnc3c(-c4ccncc4)cnn3c2)cc1

System: not listed separately
Test: Partition coefficient (logP)
Format: physicochemical
Conditions: octanol/water

Row | logP | Compound
4 | > 4 | COc1ccc(-c2cnc3c(-c4ccsc4)cnn3c2)cc1
5 | 2.5 | c1cc(-c2cnc3c(-c4ccncc4)cnn3c2)ccn1
6 | 4 | COc1ccc(-c2cnc3c(-c4ccncc4)cnn3c2)cc1

Molecular target: VEGF-receptor 2 and PDGF-receptor beta (KDR and PDGFR beta) (Homo sapiens) (UniProt P09619+P35968)
Sequence (P09619 whole entry, looked up): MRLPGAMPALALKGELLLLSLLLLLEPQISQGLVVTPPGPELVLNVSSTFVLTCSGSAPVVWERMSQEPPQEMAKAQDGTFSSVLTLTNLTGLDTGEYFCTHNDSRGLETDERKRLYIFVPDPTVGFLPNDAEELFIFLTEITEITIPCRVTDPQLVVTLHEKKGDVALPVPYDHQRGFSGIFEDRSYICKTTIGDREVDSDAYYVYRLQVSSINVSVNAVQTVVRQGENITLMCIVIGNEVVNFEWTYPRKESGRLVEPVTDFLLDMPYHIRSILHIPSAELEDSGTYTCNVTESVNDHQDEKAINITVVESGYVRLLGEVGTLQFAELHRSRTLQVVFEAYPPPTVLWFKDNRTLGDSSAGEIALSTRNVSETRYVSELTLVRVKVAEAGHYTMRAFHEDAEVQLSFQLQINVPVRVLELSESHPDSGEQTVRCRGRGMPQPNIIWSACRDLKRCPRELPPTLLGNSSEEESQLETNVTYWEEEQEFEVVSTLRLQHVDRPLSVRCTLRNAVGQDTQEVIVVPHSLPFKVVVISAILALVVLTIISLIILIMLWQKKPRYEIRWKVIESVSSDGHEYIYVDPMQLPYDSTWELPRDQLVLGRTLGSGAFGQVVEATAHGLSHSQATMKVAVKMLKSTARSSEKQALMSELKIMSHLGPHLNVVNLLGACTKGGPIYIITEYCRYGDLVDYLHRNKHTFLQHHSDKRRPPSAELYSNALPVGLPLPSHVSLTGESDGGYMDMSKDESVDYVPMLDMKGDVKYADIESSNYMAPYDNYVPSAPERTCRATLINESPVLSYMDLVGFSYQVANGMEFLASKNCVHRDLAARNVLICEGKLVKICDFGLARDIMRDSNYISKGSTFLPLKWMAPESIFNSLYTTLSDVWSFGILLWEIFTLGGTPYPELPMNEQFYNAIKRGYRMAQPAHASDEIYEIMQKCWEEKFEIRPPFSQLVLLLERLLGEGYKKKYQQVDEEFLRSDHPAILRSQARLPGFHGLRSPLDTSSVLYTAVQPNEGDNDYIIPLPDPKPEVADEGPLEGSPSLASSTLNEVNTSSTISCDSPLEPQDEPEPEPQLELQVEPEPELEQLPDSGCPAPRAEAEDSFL
Sequence (P35968 whole entry, looked up): as the sequence (P35968 whole entry, looked up) above
Test: Selectivity for Vascular endothelial growth factor receptor 2 over Platelet-derived growth factor receptor beta
Format: protein assay
Conditions: not given

Row | Ratio | Compound
7 | 0.5 | COc1ccc(-c2cnc3c(-c4ccncc4)cnn3c2)cc1

Molecular target: Vascular endothelial growth factor receptor 2 (Homo sapiens, UniProt P35968)
Sequence (P35968 whole entry): as the sequence (P35968 whole entry, looked up) above
Test: Inhibitory activity at VEGF-2 receptor.
Conditions: not given

Row | Compound | IC50 [nM]
8 | COc1ccc(-c2cnc3c(-c4ccccn4)cnn3c2)cc1 | 1000
9 | COc1ccc(-c2cnc3c(-c4cccnc4)cnn3c2)cc1 | 41
10 | Clc1cccc(-c2cnn3cc(-c4ccncc4)cnc23)c1 | 350
11 | c1cc(-c2cnn3cc(C4CCCCC4)cnc23)cs1 | 280
12 | Fc1ccc(-c2cnn3cc(-c4ccncc4)cnc23)cc1Cl | 265
13 | Fc1ccc(-c2cnn3cc(-c4ccncc4)cnc23)cc1 | 63
14 | Cc1ccc(-c2cnc3c(-c4ccncc4)cnn3c2)cc1 | 62
15 | COc1cccc(-c2cnn3cc(-c4ccncc4)cnc23)c1 | 510
16 | Clc1ccc(-c2cnc3c(-c4ccncc4)cnn3c2)cc1 | 113
17 | c1ccc(-c2cnn3cc(-c4ccccn4)cnc23)cc1 | 88

Results, then the compound that gave them:

Row | IC50 [nM] | Compound
18 | 28 | C1=C(c2cnn3cc(-c4ccncc4)cnc23)CCC1
19 | 41 | C1=C(c2cnn3cc(-c4ccncc4)cnc23)CCCC1
20 | 71 | c1ccc(-c2cnn3cc(-c4ccncc4)cnc23)cc1
